Consider seven compounds from patent US8580579B2, “Hydrophilic and lipophilic rhodamines for labelling and imaging” (Max-Planck-Gesellschaft zur Foerderung der Wissenschaften …, priority 2009, dated 2013).

By solubility is commonly meant the concentration that dissolves in the medium under given conditions. A higher solubility goes with a readily soluble substance.

The nature of series [1]: Spectral properties of commercially available dyes (Table 1). The series is classed as physicochemical. Particulars: commercial dyes.
Series [2] is described as follows: Photostability order of commercial dyes. The series is classed as physicochemical. Particulars: derived from the references to Table 1. From the text:
Cytochem. 2003, 51, 1699-1712], and only in 2007 its structure has been reported [B. Agnew, K. R. Gee, T. G. Nyberg (Invitrogen), US Pat. 2007/0249014]. Along with rhodamines, the following substance classes were considered as leads for developing of the new fluorescent dyes: BODIPY® derivatives (represented by BODYPY® 630/650 in FIG. 4), carbopyronines (Atto 635 and 647), cyanine dyes (Cy® 5 and Alexa 647), structurally related hybrids of cyanine dyes and benzopyranes (DY-630/635/650) and oxazines (Evoblue 30). BODIPY® derivatives have a substantial drawback: sometimes, fluorescence intensity of their bioconjugates is not directly proportional to a number of labelled sites [R. P. Haugland, A Guide to Fluorescent Probes and Labelling Technologies, Invitrogen Corp., Carlsbad, 2005, p. 53]. Moreover, it is difficult to chemically modify a BODIPY residue in such a way that it becomes water-soluble and more photostable. Carbopyronines have been extensively studied by Drexhage et al. [e.g. A. Zilles, J. Arden-Jacob, K.-H. Drexhage, N. U. Kemnitzer, M. Hammers-Schneider (Atto-tec GmbH), WO 2005/003086 (13 Jan. 2005)]. The carbopyronine dye Atto 647N has been widely used for labelling in many “nanoscopic” studies. Quite recently first STED images of the living cells were recorded at a rate of 28 frames per seconds using this dye [V. Westphal, S. O. Rizzoli, M. A. Lauterbach, D. Kamin, R. Jahn, S. W. Hell, Science 2008, 320, 246-249]. In the course of this study, the movements of synaptic vesicles inside the axons of cultured neurons were recorded with a resolution of ca. 60 nm. […] However, it is not easy to further improve the properties of the carbopyronine dye Atto 647N and make it more hydrophilic. […] Lower photostability and moderate Φfl-values of cyanine dyes make them inappropriate as lead structures. Short lifetimes of the excited states and presumably low Φfl-values of oxazines (e.g. Evoblue 30), as well as their moderate photostability, make the optimization of their properties not very promising.

The conditions of series [3]: cited from earlier work.
For series [4] the following is noted: cited from earlier work. This is another data set of the same source.
The nature of series [5]: UV-visible absorption and fluorescence spectra of the dyes of the invention. In kind it is physicochemical. As to the method: UV-visible absorption spectra were recorded on a Varian Cary 4000 UV-Vis spectrophotometer, and fluorescence spectra on a Varian Cary Eclipse fluorescence spectrophotometer. Reactions were carried out upon magnetic stirring in Schlenk flasks equipped with septa or reflux condensers with bubble-counters under argon using a standard manifold with vacuum and argon lines. All NMR spectra are referenced to tetramethylsilane as an internal standard (δ=0 ppm) using the signals of the residual protons of CHCl3 (7.26 ppm) in CDCl3, CHD2OD (3.31 ppm) in CD3OD, HOD (4.75 ppm) in D2O, [D5]acetone (2.04 ppm) in [D6]acetone or [D5]DMSO (2.50 ppm) in [D6]DMSO. Multiplicities of signals are described as follows: s=singlet, br. s=broad singlet, d=doublet, t=triplet, q=quartet, quint=quintet, m=multiplet, mc=centrosymmetrical multiplet. Coupling constants (J) are given in Hz. Multiplicities in the ^13C NMR spectra were determined by APT (Attached Proton Test) measurements. Low resolution mass spectra (electro spray ionization, ESI) were obtained with LCQ and ESI-TOF mass-spectrometers (MICROTOF (focus), Fa. Bruker). The MICROTOF spectrometer equipped with ESI ion source Apollo and direct injector with LC autosampler Agilent RR 1200 was used for obtaining high resolution mass spectra (ESI-HRMS). ESI-HRMS were obtained also on APEX IV spectrometer (Bruker). HPLC system (Knauer): Smartline pump 1000 (2×), UV detector 2500, column thermostat 4000 (25° C.), mixing chamber, injection valve with 20 and 100 μL loop for the analytical and preparative columns, respectively; 6-port-3-channel switching valve; analytical column: Eurospher-100 C18, 5 μm, 250×4 mm, 1.1 mL/min; preparative column: Eurospher-100-5 C18, 5 μm, 250×8 mm, 3.7 mL/min; solvent A: water+0.1% v/v trifluoroacetic acid (TFA); solvent B: MeCN+0.1% v/v TFA; detection at 636 nm (if not stated otherwise). Normal phase analytical TLC was performed on MERCK ready-to-use plates with silica gel 60 (F254) and reversed phase TLC—on RP-18W/UV254 precoated TLC plates (Macherey-Nagel). Preparative TLC was performed on MERCK HPTLC silica gel 60 plates (10×10 cm, layer thickness 0.2 mm). Column chromatography: MERCK silica gel, grade 60, 0.04-0.063 mm or Polygoprep 60-50 C18 (Macherey-Nagel).

Series [6] can be described thus: Fluorescence quantum yield, Atto 633 as reference. The series is classed as physicochemical. To be noted: Atto 633 as reference (Φfl = 64% in aqueous buffer). The source says: Moreover, intersystem crossing rates (kISC) and rates of the T1→S0 transitions were also found to be the same for both deuterated and undeuterated substances (see ref. to Table 2).
For series [7] the following is noted: 8 M urea solution; cited from earlier work.
Series [8] can be described thus: Solubility and polarity of the dyes.
Series [9] in a line: Excited state lifetime and FCS study under single molecule conditions. In kind it is physicochemical.
Series [10] is described as follows: Chemical and storage stability of dyes and reactive derivatives. In kind it is physicochemical.
A further series can be described thus: physchem. Particulars: water.
Series [11] is described as follows: Chemical and storage stability of dyes and reactive derivatives. In kind it is physicochemical. To be noted: under Ar. From the text:
Usually, amino- or thiol reactive derivatives of the fluorescent dyes are used for labelling of proteins. For conjugation with amines, the free carboxy group needs to be activated by the formation of N-hydroxy(sulfo)succinimidyl esters, phenyl esters with electron-acceptor groups in the benzene ring or similar compounds with good leaving groups. […] Ester 8 partly decomposed in the course of chromatographic isolation using silica gel. Therefore, the reaction mixture containing the active ester 8 was used for labelling the lipids in their non-polar domain and other coupling procedures. […] They were isolated by reversed-phase HPLC using the gradient elution with aqueous acetonitrile with 0.1% (v/v) of TFA, lyophilized and stored at −20° C. under argon. Under these conditions, the content of the corresponding acids 6/6D in the very light dark blue voluminous solids increased from 3-5% up to 7-10% in 2 months. The higher stability of the NHS esters 9 and 10 may be explained by the absence of any nucleophilic counter ion. The maleimide derivative 11 has been prepared straight from compounds 9 and 10 by combining them in DMF with Et3N as base. It was also isolated by HPLC.

“Also recorded” adds a separate entry of the source. Like-named read-outs stand apart in the source and are kept apart here. Bounds are passed on as bounds.

In the case of `CC[N+]1=c2cc3c(cc2C(C)CC1(C)C)=C(c1ccccc1C(=O)N(C)CCCC(=O)O)c1cc2c4c(c1C3(C)C)CCCN4CCC2.[O-][Cl+3]([O-])([O-])[O-]` (mixture of isomers) [Atto 647N], the Stokes shift in [1] is recorded as 25 nm. For the same compound, in [2], the “order of the photoresistance” value is “Atto 633>Atto 647N>Alexa® 647>Alexa® 633>Cy® 5”. Further, the Φfl in [3] (no solvent given in the cell) is 65%. Also, in series [3] (solvent PBS), the “ε · 10^−5” value is 1.5 M^−1 cm^−1, the “λmax (abs.)” value is reported as 644 nm and the “λmax (fl.)” value is recorded as 669 nm. Moreover, the τfl in [3] (solvent not given) is 3.4 ns. The “Solubility (solvents)” value in series [4] is “DMF, DMSO”.

As to `CCN(CC)CC.CCN(CC)CC.CN1c2cc3c(cc2-c2sc(S(=O)(=O)O)cc2C1(C)C)C(c1c(F)c(SCC(=O)O)cc(F)c1S(=O)(=O)[O-])=c1cc2c(cc1O3)=[N+](C)C(C)(C)c1cc(S(=O)(=O)O)sc1-2` [Alexa ® 633], the Stokes shift in [1] is 15 nm. In addition, in series [2], the “order of the photoresistance” value is “Atto 633>Atto 647N>Alexa® 647>Alexa® 633>Cy® 5”. In [3] (solvent MeOH), the “ε · 10^−5” value is reported as 1.0 M^−1 cm^−1, the “λmax (abs.)” value is given as 632 nm and the “λmax (fl.)” value was 647 nm. Also, the τfl in series [3] (solvent not given) is on record as 3.2 ns. The “Solubility (solvents)” value in series [4] is listed as “DMSO, H2O^3”.

Turning to `CC[N+]1=c2cc3c(cc2CCC1)=C(c1ccccc1C(=O)N(C)CCCC(=O)O)c1ccc(N(C)C)cc1C3(C)C` [Atto 633], the “order of the photoresistance” value in series [2] is “Atto 633>Atto 647N>Alexa® 647>Alexa® 633>Cy® 5”. Moreover, the τfl in series [3] (H2O) is 3.2 (H2O) ns. For the same compound, the Φfl in series [3] (no solvent given in the cell) is 64%. In addition, in [3] (solvent H2O), the “ε · 10^−5” value is listed as 1.3 M^−1 cm^−1, the “λmax (abs.)” value is recorded as 629 nm and the “λmax (fl.)” value was 657 nm. For the same compound, the “Solubility (solvents)” value in series [4] is “DMF, DMSO,; also recorded: (H2O) MeCN^2”.

As for `CC1=CC(C)(C)N2CCCc3c4c(cc1c32)C(c1c(F)c(F)c(F)c(F)c1C(=O)[O-])=c1cc2c3c(c1O4)CCC[N+]=3C(C)(C)C=C2C` [Compound 4], in series [5] (solvent MeOH), the “λmax (abs.)” value turned out to be 616 nm and the “λmax (fl.)” value is recorded as 641 nm. This compound also came in with a Φfl in water in [6] of 63%. Further, in series [7], the absorption maximum was 630 nm and the emission maximum is listed as 655 nm. In addition, in [8], the “Solubility (solvents)” value was “CHCl3, THF”; the polarity entry was “non-polar”; the “solubility in organic solvents” value is “soluble in most organic solvents”; the “solubility in water or aqueous buffers” value was “low solubility in water or aqueous buffers; also recorded: insoluble in water”.

For the compound `[2H]C1=C(C([2H])([2H])S(=O)(=O)O)c2cc3c(c4c2N(CCC4)C1(C([2H])([2H])[2H])C([2H])([2H])[2H])Oc1c2c4c(cc1=C3c1c(F)c(F)c(F)c(F)c1C(=O)N(C)CCC(=O)O)C(C([2H])([2H])S(=O)(=O)[O-])=C([2H])C(C([2H])([2H])[2H])(C([2H])([2H])[2H])[N+]=4CCC2` [Compound 6D], the Stokes shift in series [5] (dyes of the invention) is reported as 23 nm. For the same compound, in series [5] (solvent H2O), the “ε · 10^−5” value is reported as 0.92 M^−1 cm^−1, the “λmax (abs.)” value is 637 nm and the “λmax (fl.)” value is reported as 660 nm. The Φfl in water in series [6] is reported as 78%. Besides, the “τfl (excited state lifetime)” value in [9] is recorded as 3.67^21 ns. Moreover, the “stability in methanol or methanol-containing solutions” value in [10] is listed as “rapid esterification of the β-alanine fragment with methanol”. Also, in “physchem”, the solubility was more than 100 mM. Also, in [8], the polarity result is “polar; also recorded: hydrophilic” and the “solubility in water or aqueous buffers” value is on record as “soluble in water or aqueous buffers”.

As for `CN(CCC(=O)NCCN1C(=O)C=CC1=O)C(=O)c1c(F)c(F)c(F)c(F)c1C1=c2cc3c4c(c2Oc2c1cc1c5c2CCCN5C(C)(C)C=C1CS(=O)(=O)O)CCC[N+]=4C(C)(C)C=C3CS(=O)(=O)O` [Compound 11], the “stability in a solid state” value in series [11] is reported as “stable”. For the same compound, the “stability in methanol or methanol-containing solutions” value in series [10] is “decomposes; also recorded: sensitive to methanol even at room temperature”. Moreover, the “solubility in water or aqueous buffers” value in series [8] is “soluble in water”.

As to `CC[N+]1=C(C=CC=CC=C2N(CCCCCC(=O)O)c3ccc(S(=O)(=O)O)cc3C2(C)C)C(C)(C)c2cc(S(=O)(=O)[O-])ccc21` [Cy ® 5], the “order of the photoresistance” value in series [2] is recorded as “Atto 633>Atto 647N>Alexa® 647>Alexa® 633>Cy® 5”. Also, in series [3] (H2O), the τfl is recorded as 0.9 (H2O)^1 ns. Also, in [3] (PBS), the Φfl is given as 27% and the τfl is reported as 1 (PBS)^11 ns. In series [3] (solvent H2O), the “ε · 10^−5” value is listed as 2.5 M^−1 cm^−1, the “λmax (abs.)” value is listed as 647 nm and the “λmax (fl.)” value is on record as 663 nm.
